Earlier results, collected in patent US20070203225A1, “METHOD OF INCREASING ENDOGENOUS ADIPONECTIN PRODUCTION AND LEPTIN PRODUCTION” (priority 2001, published 2007).

How the values were obtained:
Conditions in all cases: metformin 1.0 mM with 0.16 nM insulin, n=18; cited from earlier work
[1] = system: isolated rat adipocytes
[2] = system: isolated rat adipocytes; remark: listed apart in the source
[3] = system: isolated rat adipocytes; remark: listed apart in the source

CN(C)C(=N)N=C(N)N [metformin]
effect on glucose utilization (in words) [1]: increases
effect on proportion of glucose metabolized to lactate (in words) [2]: increases
effect on leptin secretion (in words) [3]: inhibits
